From US7118895B2, “Process for producing aglycon by using diglycosidase and flavor-improved food containing the aglycon and converting agent to be used in the process” (Amano Enzyme Inc., priority 2000, dated 2006)

Test system: Crude diglycosidase
Test: Examination of pH in the conversion into isoflavone aglycons by diglycosidase using soybean materials
Assay type: biochemical, Penicillium multicolor IAM7153
Parameters: Decomposition efficiency of genistin family in soymilk / Decomposition efficiency of genistin family in defatted soybean / Decomposition efficiency of daidzin family in defatted soybean: concentration or dose not given beside the values
Conditions: for Decomposition efficiency of genistin family in roasted soy flour: 55° C.
Outline: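 Soybean materials (roasted soy flour, soymilk, defatted soybean, concentrated soy protein) suspended and adjusted to pH 2–11. Crude diglycosidase added at 1.88 AU/mL enzyme solution and reacted at 55° C. Ethanol-stopped at 0, 1, 3 and 6 h; isoflavone glycosides and aglycons detected by HPLC.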

[1] = pH4.8, heat treatment of enzyme: no, reaction time 0 h
[2] = pH4.8, heat treatment of enzyme: no, reaction time 1 h
[3] = pH4.8, heat treatment of enzyme: no, reaction time 3 h
[4] = pH4.8, heat treatment of enzyme: no, reaction time 6 h
[5] = pH4.8, heat treatment of enzyme: yes, reaction time 6 h
[6] = pH6.6, heat treatment of enzyme: no, reaction time 0 h
[7] = pH6.6, heat treatment of enzyme: no, reaction time 1 h
[8] = pH6.6, heat treatment of enzyme: no, reaction time 3 h
[9] = pH6.6, heat treatment of enzyme: no, reaction time 6 h
[10] = pH6.6, heat treatment of enzyme: yes, reaction time 6 h

Decomposition efficiency of genistin family in concentrated soybean protein (pH1.6, heat treatment of enzyme: no, reaction time 0 h): not detected | Decomposition efficiency of genistin family in concentrated soybean protein (pH1.6, heat treatment of enzyme: no, reaction time 1 h): not detected | Decomposition efficiency of genistin family in concentrated soybean protein (pH1.6, heat treatment of enzyme: no, reaction time 3 h): not detected | Decomposition efficiency of genistin family in concentrated soybean protein (pH1.6, heat treatment of enzyme: no, reaction time 6 h): not detected | Decomposition efficiency of genistin family in concentrated soybean protein (pH1.6, heat treatment of enzyme: yes, reaction time 6 h): not detected | Decomposition efficiency of genistin family in roasted soy flour (pH2, heat treatment of enzyme no, reaction time 0 h): not detected | Decomposition efficiency of genistin family in roasted soy flour (pH2, heat treatment of enzyme no, reaction time 1 h): not detected | Decomposition efficiency of genistin family in roasted soy flour (pH2, heat treatment of enzyme no, reaction time 3 h): not detected | Decomposition efficiency of genistin family in roasted soy flour (pH2, heat treatment of enzyme no, reaction time 6 h): not detected | Decomposition efficiency of genistin family in roasted soy flour (pH2, heat treatment of enzyme yes, reaction time 6 h): not detected | Decomposition efficiency of genistin family in soymilk (pH2.3, heat treatment of enzyme: no, reaction time 0 h): 58.2% | Decomposition efficiency of genistin family in soymilk (pH2.3, heat treatment of enzyme: no, reaction time 1 h): 57.5% | Decomposition efficiency of genistin family in soymilk (pH2.3, heat treatment of enzyme: no, reaction time 3 h): 54.1% | Decomposition efficiency of genistin family in soymilk (pH2.3, heat treatment of enzyme: no, reaction time 6 h): 52.1% | Decomposition efficiency of genistin family in soymilk (pH2.3, heat treatment of enzyme: yes, reaction time 6 h): 54.3% | Decomposition efficiency of genistin family in defatted soybean (pH2.6, heat treatment of enzyme: no, reaction time 0 h): 43.8% | Decomposition efficiency of genistin family in defatted soybean (pH2.6, heat treatment of enzyme: no, reaction time 1 h): 44.4% | Decomposition efficiency of genistin family in defatted soybean (pH2.6, heat treatment of enzyme: no, reaction time 3 h): 45.4% | Decomposition efficiency of genistin family in defatted soybean (pH2.6, heat treatment of enzyme: no, reaction time 6 h): 43.5% | Decomposition efficiency of genistin family in defatted soybean (pH2.6, heat treatment of enzyme: yes, reaction time 6 h): 42.0% | Decomposition efficiency of genistin family in concentrated soybean protein (pH2.7, heat treatment of enzyme: no, reaction time 0 h): not detected | Decomposition efficiency of genistin family in concentrated soybean protein (pH2.7, heat treatment of enzyme: no, reaction time 1 h): not detected | Decomposition efficiency of genistin family in concentrated soybean protein (pH2.7, heat treatment of enzyme: no, reaction time 3 h): not detected | Decomposition efficiency of genistin family in concentrated soybean protein (pH2.7, heat treatment of enzyme: no, reaction time 6 h): not detected | Decomposition efficiency of genistin family in concentrated soybean protein (pH2.7, heat treatment of enzyme: yes, reaction time 6 h): not detected | Decomposition efficiency of genistin family in roasted soy flour (pH3, heat treatment of enzyme no, reaction time 0 h): not detected | Decomposition efficiency of genistin family in roasted soy flour (pH3, heat treatment of enzyme no, reaction time 1 h): not detected | Decomposition efficiency of genistin family in roasted soy flour (pH3, heat treatment of enzyme no, reaction time 3 h): not detected | Decomposition efficiency of genistin family in roasted soy flour (pH3, heat treatment of enzyme no, reaction time 6 h): not detected | Decomposition efficiency of genistin family in roasted soy flour (pH3, heat treatment of enzyme yes, reaction time 6 h): not detected | Decomposition efficiency of genistin family in defatted soybean (pH3.4, heat treatment of enzyme: no, reaction time 0 h): 43.8% | Decomposition efficiency of genistin family in defatted soybean (pH3.4, heat treatment of enzyme: no, reaction time 1 h): 41.6% | Decomposition efficiency of genistin family in defatted soybean (pH3.4, heat treatment of enzyme: no, reaction time 3 h): 36.4% | Decomposition efficiency of genistin family in defatted soybean (pH3.4, heat treatment of enzyme: no, reaction time 6 h): 30.4% | Decomposition efficiency of genistin family in defatted soybean (pH3.4, heat treatment of enzyme: yes, reaction time 6 h): 39.8% | Decomposition efficiency of genistin family in soymilk (pH3.5, heat treatment of enzyme: no, reaction time 0 h): 58.2% | Decomposition efficiency of genistin family in soymilk (pH3.5, heat treatment of enzyme: no, reaction time 1 h): 27.9% | Decomposition efficiency of genistin family in soymilk (pH3.5, heat treatment of enzyme: no, reaction time 3 h): 7.5% | Decomposition efficiency of genistin family in soymilk (pH3.5, heat treatment of enzyme: no, reaction time 6 h): 2.7% | Decomposition efficiency of genistin family in soymilk (pH3.5, heat treatment of enzyme: yes, reaction time 6 h): 52.7% | Decomposition efficiency of genistin family in concentrated soybean protein (pH3.7, heat treatment of enzyme: no, reaction time 0 h): not detected | Decomposition efficiency of genistin family in concentrated soybean protein (pH3.7, heat treatment of enzyme: no, reaction time 1 h): not detected | Decomposition efficiency of genistin family in concentrated soybean protein (pH3.7, heat treatment of enzyme: no, reaction time 3 h): not detected | Decomposition efficiency of genistin family in concentrated soybean protein (pH3.7, heat treatment of enzyme: no, reaction time 6 h): not detected | Decomposition efficiency of genistin family in concentrated soybean protein (pH3.7, heat treatment of enzyme: yes, reaction time 6 h): not detected | Decomposition efficiency of genistin family in roasted soy flour (pH4, heat treatment of enzyme no, reaction time 0 h): not detected | Decomposition efficiency of genistin family in roasted soy flour (pH4, heat treatment of enzyme no, reaction time 1 h): not detected | Decomposition efficiency of genistin family in roasted soy flour (pH4, heat treatment of enzyme no, reaction time 3 h): not detected | Decomposition efficiency of genistin family in roasted soy flour (pH4, heat treatment of enzyme no, reaction time 6 h): not detected | Decomposition efficiency of genistin family in roasted soy flour (pH4, heat treatment of enzyme yes, reaction time 6 h): not detected | Decomposition efficiency of genistin family in defatted soybean [1]: 43.2% | Decomposition efficiency of genistin family in soymilk [1]: 58.6% | Decomposition efficiency of genistin family in defatted soybean [2]: 42.8% | Decomposition efficiency of genistin family in soymilk [2]: 41.0% | Decomposition efficiency of genistin family in defatted soybean [3]: 37.5% | Decomposition efficiency of genistin family in soymilk [3]: 23.9% | Decomposition efficiency of genistin family in defatted soybean [4]: 31.1% | Decomposition efficiency of genistin family in soymilk [4]: 11.3% | Decomposition efficiency of genistin family in defatted soybean [5]: 41.7% | Decomposition efficiency of genistin family in soymilk [5]: 51.9% | Decomposition efficiency of genistin family in roasted soy flour (pH5, heat treatment of enzyme no, reaction time 0 h): not detected | Decomposition efficiency of genistin family in roasted soy flour (pH5, heat treatment of enzyme no, reaction time 1 h): not detected | Decomposition efficiency of genistin family in roasted soy flour (pH5, heat treatment of enzyme no, reaction time 3 h): not detected | Decomposition efficiency of genistin family in roasted soy flour (pH5, heat treatment of enzyme no, reaction time 6 h): not detected | Decomposition efficiency of genistin family in roasted soy flour (pH5, heat treatment of enzyme yes, reaction time 6 h): not detected | Decomposition efficiency of genistin family in concentrated soybean protein (pH5.1, heat treatment of enzyme: no, reaction time 0 h): not detected | Decomposition efficiency of genistin family in concentrated soybean protein (pH5.1, heat treatment of enzyme: no, reaction time 1 h): not detected | Decomposition efficiency of genistin family in concentrated soybean protein (pH5.1, heat treatment of enzyme: no, reaction time 3 h): not detected | Decomposition efficiency of genistin family in concentrated soybean protein (pH5.1, heat treatment of enzyme: no, reaction time 6 h): not detected | Decomposition efficiency of genistin family in concentrated soybean protein (pH5.1, heat treatment of enzyme: yes, reaction time 6 h): not detected | Decomposition efficiency of genistin family in defatted soybean (pH5.4, heat treatment of enzyme: no, reaction time 0 h): 43.2% | Decomposition efficiency of genistin family in defatted soybean (pH5.4, heat treatment of enzyme: no, reaction time 1 h): 48.0% | Decomposition efficiency of genistin family in defatted soybean (pH5.4, heat treatment of enzyme: no, reaction time 3 h): 44.6% | Decomposition efficiency of genistin family in defatted soybean (pH5.4, heat treatment of enzyme: no, reaction time 6 h): 39.7% | Decomposition efficiency of genistin family in defatted soybean (pH5.4, heat treatment of enzyme: yes, reaction time 6 h): 45.8% | Decomposition efficiency of genistin family in soymilk (pH6.2, heat treatment of enzyme: no, reaction time 0 h): 58.6% | Decomposition efficiency of genistin family in soymilk (pH6.2, heat treatment of enzyme: no, reaction time 1 h): 52.6% | Decomposition efficiency of genistin family in soymilk (pH6.2, heat treatment of enzyme: no, reaction time 3 h): 41.2% | Decomposition efficiency of genistin family in soymilk (pH6.2, heat treatment of enzyme: no, reaction time 6 h): 35.8% | Decomposition efficiency of genistin family in soymilk (pH6.2, heat treatment of enzyme: yes, reaction time 6 h): 51.5% | Decomposition efficiency of genistin family in roasted soy flour (pH6.5, heat treatment of enzyme no, reaction time 0 h): not detected | Decomposition efficiency of genistin family in roasted soy flour (pH6.5, heat treatment of enzyme no, reaction time 1 h): not detected | Decomposition efficiency of genistin family in roasted soy flour (pH6.5, heat treatment of enzyme no, reaction time 3 h): not detected | Decomposition efficiency of genistin family in roasted soy flour (pH6.5, heat treatment of enzyme no, reaction time 6 h): not detected | Decomposition efficiency of genistin family in roasted soy flour (pH6.5, heat treatment of enzyme yes, reaction time 6 h): not detected | Decomposition efficiency of genistin family in concentrated soybean protein [6]: not detected | Decomposition efficiency of genistin family in defatted soybean [6]: 47.1% | Decomposition efficiency of genistin family in concentrated soybean protein [7]: not detected | Decomposition efficiency of genistin family in defatted soybean [7]: 50.1% | Decomposition efficiency of genistin family in concentrated soybean protein [8]: not detected | Decomposition efficiency of genistin family in defatted soybean [8]: 48.3% | Decomposition efficiency of genistin family in concentrated soybean protein [9]: not detected | Decomposition efficiency of genistin family in defatted soybean [9]: 46.1% | Decomposition efficiency of genistin family in concentrated soybean protein [10]: not detected | Decomposition efficiency of genistin family in defatted soybean [10]: 45.7% | Decomposition efficiency of genistin family in soymilk (pH7.2, heat treatment of enzyme: no, reaction time 0 h): 57.0% | Decomposition efficiency of genistin family in soymilk (pH7.2, heat treatment of enzyme: no, reaction time 1 h): 56.9% | Decomposition efficiency of genistin family in soymilk (pH7.2, heat treatment of enzyme: no, reaction time 3 h): 51.5% | Decomposition efficiency of genistin family in soymilk (pH7.2, heat treatment of enzyme: no, reaction time 6 h): 46.4% | Decomposition efficiency of genistin family in soymilk (pH7.2, heat treatment of enzyme: yes, reaction time 6 h): 51.1% | Decomposition efficiency of genistin family in defatted soybean (pH7.8, heat treatment of enzyme: no, reaction time 0 h): 45.8% | Decomposition efficiency of genistin family in defatted soybean (pH7.8, heat treatment of enzyme: no, reaction time 1 h): 46.6% | Decomposition efficiency of genistin family in defatted soybean (pH7.8, heat treatment of enzyme: no, reaction time 3 h): 44.4% | Decomposition efficiency of genistin family in defatted soybean (pH7.8, heat treatment of enzyme: no, reaction time 6 h): 42.2% | Decomposition efficiency of genistin family in defatted soybean (pH7.8, heat treatment of enzyme: yes, reaction time 6 h): 39.9% | Decomposition efficiency of genistin family in roasted soy flour (pH8.5, heat treatment of enzyme no, reaction time 0 h): not detected | Decomposition efficiency of genistin family in roasted soy flour (pH8.5, heat treatment of enzyme no, reaction time 1 h): not detected | Decomposition efficiency of genistin family in roasted soy flour (pH8.5, heat treatment of enzyme no, reaction time 3 h): not detected | Decomposition efficiency of genistin family in roasted soy flour (pH8.5, heat treatment of enzyme no, reaction time 6 h): not detected | Decomposition efficiency of genistin family in roasted soy flour (pH8.5, heat treatment of enzyme yes, reaction time 6 h): not detected | Decomposition efficiency of genistin family in concentrated soybean protein (pH8.6, heat treatment of enzyme: no, reaction time 0 h): not detected | Decomposition efficiency of genistin family in concentrated soybean protein (pH8.6, heat treatment of enzyme: no, reaction time 1 h): not detected | Decomposition efficiency of genistin family in concentrated soybean protein (pH8.6, heat treatment of enzyme: no, reaction time 3 h): not detected | Decomposition efficiency of genistin family in concentrated soybean protein (pH8.6, heat treatment of enzyme: no, reaction time 6 h): not detected | Decomposition efficiency of genistin family in concentrated soybean protein (pH8.6, heat treatment of enzyme: yes, reaction time 6 h): not detected | Decomposition efficiency of genistin family in soymilk (pH11.6, heat treatment of enzyme: no, reaction time 0 h): 54.2% | Decomposition efficiency of genistin family in soymilk (pH11.6, heat treatment of enzyme: no, reaction time 1 h): 57.7% | Decomposition efficiency of genistin family in soymilk (pH11.6, heat treatment of enzyme: no, reaction time 3 h): 52.6% | Decomposition efficiency of genistin family in soymilk (pH11.6, heat treatment of enzyme: no, reaction time 6 h): 49.5% | Decomposition efficiency of genistin family in soymilk (pH11.6, heat treatment of enzyme: yes, reaction time 6 h): 47.7%
Structure (SMILES): O=C(O)CC(=O)OC[C@H]1O[C@@H](Oc2cc(O)c3c(=O)c(-c4ccc(O)cc4)coc3c2)[C@H](O)[C@@H](O)[C@@H]1O [malonylgenistin, 6″-O-malonylgenistin]
